# Measured values: patent US10617680B2 (CELGENE QUANTICEL RESEARCH, INC., priority 2017, dated 2020)
# Like-named read-outs stand apart in the source and are kept apart here.
# Target: CBP (Homo sapiens (Human), UniProt Q92793)
# Test: In vitro CBP inhibition (AlphaScreen, biotinylated H4-tetraacetyl peptide)
# Assay type: binding
# Procedure: The CBP-inhibitory activity of the compounds described herein was determined by calculating the IC50. More specifically, CBP inhibitor activity was assayed as follows: CBP was cloned and expressed in E. coli as His-tag protein and purified by Nickel affinity and gel-filtration chromatography. […] CBP binding and inhibition is assessed by monitoring the interaction of biotinylated H4-tetraacetyl peptide (AnaSpec, H4K5/8/12/16(Ac), biotin-labeled) with the target using the AlphaScreen technology (Perkin Elmer). In a 384-well ProxiPlate CBP (50 nM final) was combined with peptide (20 nM final) in 50 mM HEPES (pH 7.3), 10 mM NaCl, 0.25 mM TCEP, 0.1% (w/v) BSA, and 0.005% (w/v) Brij-35 either in the presence of DMSO (final 0.4% DMSO) or compound dilution series in DMSO. After 20 min incubation at room temp, Alpha-streptavidin donor beads and Nickel Chelate acceptor beads were added to a final concentration of 5 μg/mL.
# The ability of the compounds disclosed herein to inhibit CBP activity was quantified and the respective IC50 value determined.
# [1] = AlphaScreen, Table 29, read-out: CBP IC50
# CBP, sequence (Q92793 1081-1197): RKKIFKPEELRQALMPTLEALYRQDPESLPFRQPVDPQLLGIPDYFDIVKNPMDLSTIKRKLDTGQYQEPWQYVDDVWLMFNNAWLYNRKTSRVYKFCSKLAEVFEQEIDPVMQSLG
IC50 [1],SMILES,IC50
< 500 nM,"Cn1cc(-c2cnn(CC3CC3)c2)c(-n2ccc(C(=O)O)c2)cc1=O [Example 86, 1-(5-(1-(cyclopropylmethyl)-1H-pyrazol-4-yl)-1-methyl-2-oxo-1,2-dihydropyridin-4-yl)-1H-pyrrolc-3-carboxylic acid]",
< 500 nM,"Cn1cc(-c2cnn(Cc3ccccc3)c2)c(N2CCCC2)cc1=O [Example 87, 5-(1-benzyl-1H-pyrazol-4-yl)-1-methyl-4-pyrrolidin-1-yl-1H-pyridin-2-one]",
< 500 nM,"Cn1cc(-c2cnn(Cc3ccccc3)c2)c(OCC(F)(F)F)cc1=O [Example 91, 5-(1-benzyl-1H-pyrazol-4-yl)-1-methyl-4-(2,2,2-trifluoro-ethoxy)pyridin-2(1H)-one]",
< 500 nM,"Cn1cc(-c2cnn(Cc3ccccc3)c2)c(OCCC(F)(F)F)cc1=O [Example 92, 5-(1-benzyl-1H-pyrazol-4-yl)-1-methyl-4-(3,3,3-trifluoro-propoxy)pyridin-2(1H)-one]",
< 500 nM,"CCOc1cc(=O)n(C)cc1-c1cnn2c1CCC2 [Example 95, 5-(5,6-dihydro-4H-pyrrolo[1,2-b]-pyrazol-3-yl)-4-ethoxy-1-methylpyridin-2(1H)-one]",
< 500 nM,"CCOc1cc(=O)n(C)cc1-c1cnn(-c2ccccc2)c1 [Example 96, 4-ethoxy-1-methyl-5-(1-phenyl-1H-pyrazol-4-yl) pyridin-2(1H)-one]",
< 500 nM,"CCOc1cc(=O)n(C)cc1-c1cnn(-c2ccccc2Cl)c1 [Example 97, 5-(1-(2-chloro-phenyl)-1H-pyrazol-4-yl)-4-ethoxy-1-methyl-pyridin-2(1H)-one]",
< 500 nM,"CCOc1cc(=O)n(C)cc1-c1cnn(-c2c(Cl)cccc2Cl)c1 [Example 98, 5-(1-(2,6-dichlorophenyl)-1H-pyrazol-4-yl)-4-ethoxy-1-methyl-pyridin-2(1H)-one]",
< 500 nM,"CCOc1cc(=O)n(C)cc1-c1cnn(Cc2ccc(C(C)C)cc2)c1 [Example 101, 4-ethoxy-5-[1-(4-isopropyl-benzyl)-1H-pyrazol-4-yl]-1-methyl-1H-pyridin-2-one]",
< 500 nM,"CCOc1cc(=O)n(C)cc1-c1cnn(Cc2ccc(-c3cnn(C)c3)cc2)c1 [Example 102, 4-ethoxy-1-methyl-5-{1-[4-(1-methyl-1H-pyrazol-4-yl)-benzyl]-1H-pyrazol-4-yl}-1H-pyridin-2-one]",
< 500 nM,"CCOc1cc(=O)n(C)cc1-c1cnn(Cc2ccc(-c3cn[nH]c3)cc2)c1 [Example 103, 4-ethoxy-1-methyl-5-{1-[4-(1H-pyrazol-4-yl)-benzyl]-1H-pyrazol-4-yl}-1H-pyridin-2-one]",
< 500 nM,"CCOc1cc(=O)n(C)cc1-c1cnn(Cc2cccc(Br)c2)c1 [Example 105, 5-(1-(3-bromo-benzyl)-1H-pyrazol-4-yl)-4-ethoxy-1-methyl-pyridin-2(1H)-one]",
,"Cc1ccccc1-c1cc(=O)n(C)cc1-c1cnn(Cc2ccccc2)c1 [Example 106, 5-(1-benzyl-1H-pyrazol-4-yl)-1-methyl-4-o-tolyl-1H-pyridin-2-one]",500 to 5000 nM
< 500 nM,"Cn1cc(-c2cn(C)c(=O)cc2-c2ccccc2)cn1 [Example 107, 1-methyl-5-(1-methyl-1H-pyrazol-4-yl)-4-phenylpyridin-2(1H)-one]",
< 500 nM,"Cn1cc(-c2cc(=O)n(C)cc2-c2cnn(Cc3ccccc3)c2)cn1 [Example 108, 5-(1-benzyl-1H-pyrazol-4-yl)-1-methyl-4-(1-methyl-1H-pyrazol-4-yl)pyridin-2(1H)-one]",
< 500 nM,"Cc1cccc(-c2cc(=O)n(C)cc2-c2cnn(Cc3ccccc3)c2)c1 [Example 111, 5-(1-benzyl-1H-pyrazol-4-yl)-1-methyl-4-(m-tolyl)-pyridin-2(1H)-one]",
< 500 nM,"Cc1ccc(-c2cc(=O)n(C)cc2-c2cnn(Cc3ccccc3)c2)cc1 [Example 112, 5-(1-benzyl-1H-pyrazol-4-yl)-1-methyl-4-(p-tolyl)pyridin-2(1H)-one]",
< 500 nM,"COc1cccc(-c2cc(=O)n(C)cc2-c2cnn(Cc3ccccc3)c2)c1 [Example 113, 5-(1-benzyl-1H-pyrazol-4-yl)-4-(3-methoxyphenyl)-1-methyl-pyridin-2(1H)-one]",

IC50 [1],SMILES,IC50
< 500 nM,"Cn1cc(-c2cnn(Cc3ccccc3)c2)c(-c2ccn[nH]2)cc1=O [Example 114, 5-(1-benzyl-1H-pyrazol-4-yl)-1-methyl-4-(1H-pyrazol-5-yl) pyridin-2(1H)-one]",
< 500 nM,"Cn1cc(-c2cnn(Cc3ccccc3)c2)c(-c2cccs2)cc1=O [Example 116, 5-(1-benzyl-1H-pyrazol-4-yl)-1-methyl-4-(thiophen-2-yl) pyridin-2(1H)-one]",
< 500 nM,"Cn1cc(-c2cnn(Cc3ccccc3)c2)c(-c2ccsc2)cc1=O [Example 117, 5-(1-benzyl-1H-pyrazol-4-yl)-1-methyl-4-(thiophen-3-yl) pyridin-2(1H)-one]",
< 500 nM,"COc1ccc(-c2cc(=O)n(C)cc2-c2cnn(Cc3ccccc3)c2)cc1 [Example 120, 5-(1-benzyl-1H-pyrazol-4-yl)-4-(4-methoxyphenyl)-1-methyl-pyridin-2(1H)-one]",
< 500 nM,"Cn1cc(-c2cnn(Cc3ccccc3)c2)c(-c2cccnc2)cc1=O [Example 122, 5′-(1-benzyl-1H-pyrazol-4-yl)-1′-methyl-[3,4-bipyridin]-2′(1′H)-one]",
,"Cn1cc(-c2cnn(Cc3ccccc3)c2)c(-c2ccccc2Cl)cc1=O [Example 123, 5-(1-benzyl-1H-pyrazol-4-yl)-4-(2-chlorophenyl)-1-methyl-pyridin-2(1H)-one]",500 to 5000 nM
< 500 nM,"Cn1cc(-c2cnn(Cc3ccccc3)c2)c(-c2ccncc2)cc1=O [Example 124, 5-(1-benzyl-1H-pyrazol-4-yl)-1-methyl-[4,4′-bipyridin]-2(1H)-one]",
< 500 nM,"Cn1cc(-c2cnn(C3CCCCC3)c2)c(-c2ccccc2)cc1=O [Example 125, 5-(1-cyclohexyl-1H-pyrazol-4-yl)-1-methyl-4-phenylpyridin-2(1H)-one]",
< 500 nM,"Cn1cc(-c2cnn(C3CCOCC3)c2)c(-c2ccccc2)cc1=O [Example 126, 1-methyl-4-phenyl-5-(1-(tetrahydro-2H-pyran-4-yl)-1H-pyrazol-4-yl) pyridin-2(1H)-one]",
< 500 nM,"Cn1cc(-c2cnn(C3CCN(S(C)(=O)=O)CC3)c2)c(-c2ccccc2)cc1=O [Example 127, 1-methyl-5-(1-(1-(methyl-sulfonyl)-piperidin-4-yl)-1H-pyrazol-4-yl)-4-phenylpyridin-2(1H)-one]",
< 500 nM,"Cn1cc(-c2cnn(-c3ccccc3)c2)c(-c2ccccc2)cc1=O [Example 128, 1-methyl-4-phenyl-5-(1-phenyl-1H-pyrazol-4-yl) pyridin-2(1H)-one]",
< 500 nM,"Cn1cc(-c2cnn(CCN3CCOCC3)c2)c(-c2ccccc2)cc1=O [Example 130, 1-methyl-5-(1-(2-morpho-linoethyl)-1H-pyrazol-4-yl)-4-phenylpyridin-2(1H)-one]",
< 500 nM,"CCn1cc(-c2cn(C)c(=O)cc2-c2ccccc2)cn1 [Example 132, 5-(1-ethyl-1H-pyrazol-4-yl)-1-methyl-4-phenylpyridin-2(1H)-one]",
< 500 nM,"Cn1cc(-c2cn[nH]c2)c(-c2ccccc2)cc1=O [Example 133, 1-methyl-4-phenyl-5-(1H-pyrazol-4-yl)pyridin-2(1H)-one]",
< 500 nM,"CN(C)C(=O)Cn1cc(-c2cn(C)c(=O)cc2-c2ccccc2)cn1 [Example 135, N,N-dimethyl-2-(4-(1-methyl-6-oxo-4-phenyl-1,6-dihydropyridin-3-yl)-1H-pyrazol-1-yl)acetamide]",
< 500 nM,"Cc1nn(C)cc1-c1cn(C)c(=O)cc1-c1ccccc1 [Example 136, 5-(1,3-dimethyl-1H-pyrazol-4-yl)-1-methyl-4-phenylpyridin-2(1H)-one]",
< 500 nM,"CC(C)Cn1cc(-c2cn(C)c(=O)cc2-c2ccccc2)cn1 [Example 137, 5-(1-isobutyl-1H-pyrazol-4-yl)-1-methyl-4-phenylpyridin-2(1H)-one]",

SMILES,IC50 [1],IC50
"CNC(=O)[C@H]1CCN(c2cc(=O)n(C)cc2-c2cnn(Cc3ccccc3)c2)C1 [Example 93, 1-[5-(1-benzyl-1H-pyrazol-4-yl)-1-methyl-2-oxo-1,2-dihydro-pyridin-4-yl]-pyrrolidine-3-methylacetamide]",< 500 nM,
"CNNc1cc(=O)n(C)cc1-c1cnn(Cc2ccccc2)c1 [Example 99, 5-(1-benzyl-1H-pyrazol-4-yl)-1-methyl-4-(2-methyl-hydrazinyl)-pyridin-2(1H)-one]",500 to 5000 nM,
"CCOc1cc(=O)n(C)cc1-c1cnn(C(C)c2ccc(-c3cnn(C)c3)cc2)c1 (centres unmarked) [Example 100, 4-ethoxy-1-methyl-5-(1-{1-[4-(1-methyl-1H-pyrazol-4-yl)-phenyl]-ethyl}-1H-pyrazol-4-yl)-1H-pyridin-2-one]",< 500 nM,
"Cn1ccc(-c2cc(=O)n(C)cc2-c2cnn(Cc3ccccc3)c2)n1 [Example 109, 5-(1-benzyl-1H-pyrazol-4-yl)-1-methyl-4-(1-methyl-1H-pyrazol-3-yl)pyridin-2(1H)-one]",500 to 5000 nM,
"Cn1nccc1-c1cc(=O)n(C)cc1-c1cnn(Cc2ccccc2)c1 [Example 110, 5-(1-benzyl-1H-pyrazol-4-yl)-1-methyl-4-(1-methyl-1H-pyrazol-5-yl)pyridin-2(1H)-one]",500 to 5000 nM,
"Cn1cc(-c2cnn(Cc3ccccc3)c2)c(-c2ccccn2)cc1=O [Example 131, 5′-(1-benzyl-1H-pyrazol-4-yl)-1′-methyl-[2,4′-bipyridin]-2′(1′H)-one]",500 to 5000 nM,
